Measured values published in publication PMC4105339 (Antiviral research, 2014).
Marks after values point to notes of the source that are not given here.

What was measured:
[1] = test system: H5N1 clade 1 A/Chicken/Vietnam/08/2004 neuraminidase; settings: 37°C
[2] = biological target: B/Perth/211/01 wild type neuraminidase; settings: cited from earlier work
[3] = test system: A/Mississippi/03/01 H1N1 wild type neuraminidase
[4] = test system: H5N1 clade 2 A/Chicken/Bangli/BBVD-563/2007 neuraminidase; settings: 37°C
[5] = test system: A/Fukui/45/04 H3N2 wild type neuraminidase
[6] = test system: human influenza A strains (neuraminidase)
[7] = test system: B/Perth/211/01 influenza B wild type neuraminidase
[8] = test system: wild type viruses (neuraminidase)
[9] = biological target: clade 1 H5N1 neuraminidase; settings: cited from earlier work
[10] = test system: H3N2 wild type neuraminidase; settings: cited from earlier work
[11] = biological target: clade 2 H5N1 neuraminidase; settings: cited from earlier work

| SMILES | Time (T½) for reaction rates to reach half the maximum rate of the uninhibited control [1] | IC50 [2] | Time (T½) for reaction rates to reach half the maximum rate of the uninhibited control [3] | Time (T½) for reaction rates to reach half the maximum rate of the uninhibited control [4] | Time (T½) for reaction rates to reach half the maximum rate of the uninhibited control [5] | T½ values [6] | Time (T½) for reaction rates to reach half the maximum rate of the uninhibited control [7] | T½ (range over viruses) [8] | IC50 [9] | increase in IC50 from 10 to 60 min after addition of substrate in the preincubation reaction [9] | changes in IC50 from 10 to 60 min in the preincubation reaction [10] | IC50 [11] | increase in IC50 from 10 to 60 min after addition of substrate in the preincubation reaction [11] |
| --- | --- | --- | --- | --- | --- | --- | --- | --- | --- | --- | --- | --- | --- |
| CCC(CC)[C@H](NC(C)=O)[C@@H]1[C@H](O)[C@@H](C(=O)O)C[C@H]1N=C(N)N [Peramivir, peramivir] | 59.9 min | 2.8 nM | >240^* min | 84.4 min | >4 h | > 4 h |  |  |  |  |  |  |  |
| CC(=O)N[C@H]1[C@H]([C@H](O)[C@H](O)CO)OC(C(=O)O)=C[C@@H]1N=C(N)N [Zanamivir] | 27.7^* min | 8.9 nM | 41.3 min | 72.8^* min |  |  | 24.6^* min | 0.467 to 1.82 h | 2.1 nM | 4.5 fold | 1.3 fold | 1.3 nM | 2.2 fold |
